Values of other authors as cited in US20170042890A1, “METHODS OF REDUCING DECLINE IN VITAL CAPACITY” (Cytokinetics, Inc., priority 2014, published 2017).

Key:
[1] = administered concomitantly with tirasemtiv; prior studies; cited from earlier work
[2] = tested on: ALS; conditions: cited from earlier work

Nc1nc2ccc(OC(F)(F)F)cc2s1 [riluzole]
Riluzole exposure [1]: approximately doubled
Effect on measurable parameters of neuromuscular or pulmonary function [2]: does not improve
